# Measured values reported in PubChem BioAssay AID624167 (Sanford-Burnham Center for Chemical Genomics, 2012).
# Activity calls are given as the source filed them.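 The calls were made as follows: active = mean IC50 for reducing PEG3 promoter reporter signal at or below a set limit, with IC50 above the limit in both counter screens; inactive = the rest, including counter screen hits.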
# Experiments:
# PEG-3 [1] = biological target: PEG-3 (UniProt Q6IN02); assay: Peg3 promoter luciferase inhibitors, potency, dose response, cell-based, HeLa, CREF/GAPDH counter-screen panel (AID 624167); conditions: HeLa PEG-Prom luciferase reporter, overnight, CREF/GAPDH counter-screens, mean of runs
# Sequence of PEG-3 (UniProt Q6IN02) (Q6IN02 whole entry, looked up): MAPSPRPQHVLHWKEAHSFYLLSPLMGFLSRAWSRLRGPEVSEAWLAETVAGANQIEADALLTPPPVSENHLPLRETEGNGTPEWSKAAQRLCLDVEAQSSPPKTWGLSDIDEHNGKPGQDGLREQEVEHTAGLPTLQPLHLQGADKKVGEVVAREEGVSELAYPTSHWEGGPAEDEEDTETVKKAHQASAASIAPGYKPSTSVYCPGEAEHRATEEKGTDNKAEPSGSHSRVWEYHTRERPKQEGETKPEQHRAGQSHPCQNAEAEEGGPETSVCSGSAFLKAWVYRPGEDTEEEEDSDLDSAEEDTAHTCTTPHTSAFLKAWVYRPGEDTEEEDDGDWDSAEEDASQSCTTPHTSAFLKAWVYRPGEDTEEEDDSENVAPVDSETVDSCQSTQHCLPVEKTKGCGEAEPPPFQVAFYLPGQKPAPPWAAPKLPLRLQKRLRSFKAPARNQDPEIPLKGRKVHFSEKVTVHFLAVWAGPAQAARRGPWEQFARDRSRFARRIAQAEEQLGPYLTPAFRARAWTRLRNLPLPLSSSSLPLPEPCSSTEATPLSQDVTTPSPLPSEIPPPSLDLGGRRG
# PEG-3 [2] = assay: as above; conditions: HeLa PEG-Prom luciferase reporter, overnight, CREF/GAPDH counter-screens
# [3] = run 1, dose range 1, individual replicate IC50 per panel
# [4] = run 2, dose range 1, individual replicate IC50 per panel
Compound,IC50 (PEG-3 [1]),IC50 (PEG-3 [2]; [3]),IC50 (PEG-3 [2]; [4])
CCN1C/C(=C/c2ccc(N3CCOCC3)cc2)C(=O)/C(=C/c2ccc(N3CCOCC3)cc2)C1,14.5 µM,15.9 µM,13 µM
Cc1ccc(C(=O)NCCc2cccs2)cc1,12 µM,3.98 µM,20 µM
CCOC(=O)C1=C(COCCN)NC(C)=C(C(=O)OC)C1c1ccccc1Cl (stereo unspecified),15.6 µM,19 µM,12.1 µM
Cc1nc(N2CCN(S(=O)(=O)c3ccccc3C#N)CC2)c2c(-c3ccccc3)csc2n1,> 100 µM (inactive),> 100 µM,> 100 µM
COc1cc(NC(=O)c2cccc(C)c2)ccc1NC(=O)c1cc2ccccc2o1,19.3 µM,12.9 µM,25.6 µM
O=C(Sc1cccc2cccnc12)c1ccccc1Br,13.4 µM,14 µM,12.9 µM
Cc1cccc(N2CCN(C(=O)C3CCN(c4ncnc5c4nc4n5CCCCC4)CC3)CC2)c1C,inactive,30.2 µM,18.3 µM
COc1ccc(Nc2oc(COc3ccccc3OC)nc2C#N)cc1,inactive,5.83 µM,39.4 µM
O=C(Nc1ccccc1)NN(C(=O)CCl)c1ccccc1,16.7 µM,20.1 µM,13.3 µM
CCCCN(C)CCNC(=O)c1cc(-c2cccnc2)nc2ccc(S(=O)(=O)N3CCC(C)CC3)cc12,12.9 µM,10.3 µM,15.4 µM
Cc1ccc(-c2nc(C(Cl)Cl)c3ccccc3n2)cc1,inactive,> 100 µM,9.67 µM
Cc1c(C(=O)Nc2ccc(S(=O)(=O)N(C)C3CCN(C)CC3)cc2)oc2c(Cl)cccc12,12.8 µM,16.5 µM,9.1 µM
CCN(C(=O)CSc1nc2n[nH]c(C)c2c(=N)n1-c1ccc(Cl)c(C)c1)c1cccc(C)c1,20 µM,19.1 µM,20.8 µM
CCOC(=O)c1c(NC(C)=O)sc2c(OCC(O)CN(CC)CC)c(Br)ccc12 (stereo unspecified),13.9 µM,20.7 µM,7.1 µM
CCN1CCN(c2ccc(S(=O)(=O)N3CCOCC3)cc2NC(=O)/C=C/c2ccc([N+](=O)[O-])cc2)CC1,inactive,19 µM,78.3 µM
COc1cc(/C=C/[N+](=O)[O-])ccc1OC(=O)/C=C/c1ccc(F)cc1,> 100 µM (inactive),> 100 µM,> 100 µM
O=C(Nc1ccccc1N1CCOCC1)c1cc(-c2ccncc2)nc2ccccc12,inactive,33 µM,78.3 µM
COc1cc(CNCCN2CCOCC2)ccc1OCc1ccc(Cl)cc1Cl,19.8 µM,20.1 µM,19.5 µM
Cc1cc2sc3ccc(C#CC4(O)CCCCC4)cc3c(=O)c2cc1C,0.265 µM,0.265 µM,< 0.2 µM
COc1cc(OC)c(OC)cc1CCC(C)NCCC(c1ccccc1)c1ccccc1 (stereo unspecified),18.4 µM,20.3 µM,16.5 µM
CN(C)CC1CCC/C(=C\c2ccc(OC(=O)/C=C/c3ccccc3)cc2)C1=O (stereo unspecified),14.6 µM,21.8 µM,7.3 µM
Cc1ccc(NS(=O)(=O)c2cc3c4c(cccc4c2)C(=O)NC3=O)cc1C,inactive,5.99 µM,> 100 µM
COc1ccc(-c2cc(C(=O)N3CCN(c4ncccn4)CC3)c3ccccc3n2)c(OC)c1,inactive,39.3 µM,98.5 µM
O=C(CCCN1C(=O)/C(=C/c2ccccc2Cl)SC1=S)NNC(=O)c1ccccc1Cl,inactive,26.4 µM,22 µM
OCCNCc1cc(Br)ccc1OCc1ccc(Cl)cc1Cl,17.4 µM,16.9 µM,17.9 µM
Cc1cc(Br)ccc1NC(=O)CN1C(=O)C2C3CC(c4ccccc4)C(C3)C2C1=O (stereo unspecified),inactive,23.9 µM,41.9 µM
CS(=O)(=O)c1ccc(C(=O)NCCN2C(=O)S/C(=C\c3cccnc3)C2=O)cc1[N+](=O)[O-],15 µM,17.3 µM,12.7 µM
